Results published in patent US20200100505A1, “MICROBIAL INSECTICIDE FOR CONTROL OF MULBERRY THRIPS” (FARMHANNONG CO., LTD., priority 2017, published 2020).

Tested on: Western flower thrips
Assay: Insecticidal effect against thrips on caged potted tomato crop
Assay type: in vivo
Conditions: tomato pot in cage, granules 2 g per pot, clothianidin 0.02 g per pot
Experimental: An experiment on the insecticidal effect against thrips was carried out in a tomato crop. A population of the tomato crop having a height of 20 to 25 cm was used, and the tomato crop was put into a plastic cage (30×30×60 cm^3) equipped with a sieve with mesh smaller than that of Western flower thrips to prevent Western flower thrips from moving from a treatment zone, and an experiment was then performed.
A pot in which a tomato crop was planted, was treated with 2 g of the microbial insecticide granules of the present invention prepared in Example 1. Also, as the comparison group, the tomato crop was treated with an agricultural chemical (i.e., clothianidin) known to show a potent insecticidal effect against thrips at an amount of 0.02 g (i.e., an amount of 3 kg/10 a) per pot, and no insecticide was applied to the pot of the control group.

CN/C(=N\[N+](=O)[O-])NCc1cnc(Cl)s1 [clothianidin]
Thrips density After 20 days (after 20 days): 3.7 ± 0.5 number/plant | Thrips density After 40 days (after 40 days): 2.4 ± 0.4 number/plant
